# Test results as given in patent US20130071931A1, “PROCESS FOR HEPATIC DIFFERENTIATION FROM INDUCED HEPATIC STEM CELLS, AND INDUCED HEPATIC PROGENITOR CELLS DIFFERENTIATED THEREBY” (NATIONAL CANCER CENTER, priority 2011, published 2013).
# How the values were obtained:
# [1] = test system: TGF-β induced epithelial-mesenchymal transformation; settings: cited from earlier work
# [2] = test system: ALK 4; settings: cited from earlier work
# [3] = test system: human induced hepatic stem cells AFB1-1; test: Quantitative RT-PCR, differentiation with TGF-β signaling inhibitors (Example 12); format: cell-based; settings: cell samples Nos. 1545-1549: 0.5 μM inhibitor in ReproStem (bFGF-free), no feeder cells, Matrigel, 13 days after seeding
# Method: The resultant cell samples are respectively referred to as “Nos. 1545-1549”. No. 1544 was cultured in the absence of any inhibitor. Nos. 1545-1549 were cultured in the presence of the following inhibitors, respectively.
# Thirteen days after the seeding, the cells were lysed in 1 mL/well of a QIAzol reagent to prepare the total RNA from the cell lysate using the miRNeasy Mini Kit (Qiagen). The total RNA was subjected to quantitative RT-PCR using the iScript Advanced cDNA synthesis kit, the SsoAdvanced SYBR Green Supremix ([…]), and the CFX96 Real-Time System C1000 Thermal Cycler, all manufactured by Bio-Rad. The quantified genes were ALB, AAT, TTR, AFP, cytokeratin 7 (KRT7), cytokeratin 19 (KRT19), and DLK1 (Delta-like 1 homolog).
# [4] = test system: p38 MAP kinase; settings: cited from earlier work
# [5] = test system: human induced hepatic stem cells AFB1-1; test: Quantitative RT-PCR of marker genes, hepatic differentiation on Matrigel (Examples 2-4); format: cell-based; settings: no feeder cells, 13 days, No. 377 taken as 1
# [6] = test system: type I receptor for the osteogenic factor; settings: cited from earlier work
# [7] = test system: phosphorylation of Smad2/3; settings: cited from earlier work
# [8] = test system: human induced hepatic stem cells AFB1-1; test: AFP in culture supernatant, hepatic differentiation on Matrigel (Examples 2-4); settings: no feeder cells, 13 days after seeding
# [9] = test system: extracellular signal regulated kinase; settings: cited from earlier work
# [10] = test system: human induced hepatic stem cells AFB 1-1; test: AFP in culture supernatant, suspension (three-dimensional) culture (Examples 6-10); format: cell-based; settings: cell samples Nos. 473-475: suspension culture, ReproStem (bFGF-free)/Y-27632 5 μM, low-attachment plate, no feeder cells, 7 days after seeding; A-83-01 0.1 μM, OsM 10 ng/mL, DEX 0.1 μM where present
# Method: The cell pellets were lysed in 1 mL/well of a QIAzol reagent (refer to Table 8B).
# Six days after the seeding, the cells were recovered centrifugally and then suspended in 2 mL of a fresh ReproStem (bFGF-free)/Y-27632 (5 μM) supplemented with 10 ng/mL oncostatin M (OsM) and 0.1 μM dexamethasone (DEX), to continue hepatic differentiation culture in the above culture plate. […] The cell pellets were lysed in 1 mL/well of a QIAzol reagent (refer to Table 8B).
# [11] = test system: human induced hepatic stem cells AFB1-1; test: AFP in culture supernatant (Example 13); format: cell-based; settings: cell sample No. 835: 0.5 μM A-83-01/ReproStem (bFGF-free), no feeder cells, Matrigel
# Excerpt: The medium was replaced everyday with a fresh human ES/iPS cell medium (mTeSR1) to continue culture until reaching 50-80% confluence per dish. […] The resultant cell sample is referred to as “No. 835”.
# [12] = test system: human induced hepatic stem cells AFB1-1; test: AFP in culture supernatant (Example 18); format: cell-based; settings: cell sample No. 705: A-83-01 (0.5 μM at start, 0.1 μM at medium changes)/ReproStem (bFGF-free), no feeder cells, Matrigel
# [13] = test system: human induced hepatic stem cells AFB1-1; test: AFP in culture supernatant, collagen coat (Example 19); format: cell-based; settings: no feeder cells
# [14] = test system: rat iPS cells; settings: added to a rat iPS cell culture medium; cited from earlier work
# [15] = cell sample No. 393: 0.1 μM A-83-01/mTeSR1 + 100 ng/mL bFGF
# [16] = cell sample No. 394: 0.1 μM A-83-01/aFGF 10 ng/mL/ReproStem (bFGF-free)
smiles,measurement,setting,value
"Cc1cccc(-c2nn(C(=S)Nc3ccccc3)cc2-c2ccnc3ccccc23)n1 [A-83-01, 3-(6-methyl-2-pyridinyl)-N-phenyl-4-(4-quinolinyl)-1H-pyrazolo-1-carbothioamide]",TGF-β induced epithelial-mesenchymal transformation,[1],inhibits
same,IC50,[2],12 nM
same,AAT expression Ct value,[3],23.57
same,AFP expression Ct value,[3],17.21
same,ALB expression Ct value,[3],20.95
same,DLK1 expression Ct value,[3],18.15
same,KRT7 expression Ct value,[3],20.51
same,KRT19 expression Ct value,[3],22.05
same,TTR expression Ct value,[3],16.96
same,GAPDH expression Ct value,[3]; housekeeping gene,14.22
same,effect on p38 MAP kinase,[4],little or no effect
same,AAT expression level,[5]; [15],240
same,AFP expression level,[5]; [15],"1,791"
same,ALB expression level,[5]; [15],"1,925"
same,DLK1 expression level,[5]; [15],404
same,TTR expression level,[5]; [15],"2,871"
same,AAT expression level,[5]; [16],"3,812"
same,AFP expression level,[5]; [16],"12,812"
same,AHSG expression level,[5]; [16],"14,079"
same,ALB expression level,[5]; [16],"45,698"
same,APOA4 expression level,[5]; [16],966
same,DLK1 expression level,[5]; [16],804
same,FABP1 expression level,[5]; [16],"3,034"
same,FGG expression level,[5]; [16],"10,138"
same,FOXA2 expression level,[5]; [16],0.19
same,HGF expression level,[5]; [16],11
same,HNF1A expression level,[5]; [16],0.88
same,HNF4A expression level,[5]; [16],0.39
same,KRT7 expression level,[5]; [16],37.5
same,NANOG expression level,[5]; [16],0.01
same,OCT3/4 (POU5F1) expression level,[5]; [16],0.07
same,RBP4 expression level,[5]; [16],"4,326"
same,SOX2 expression level,[5]; [16],0.08
same,SOX17 expression level,[5]; [16],0.03
same,TF expression level,[5]; [16],"9,126"
same,TTR expression level,[5]; [16],"9,113"
same,effect on type I receptor for the osteogenic factor,[6],little or no effect
same,phosphorylation of Smad2/3,[7],inhibits
same,α-fetoprotein (AFP) in culture supernatant,[8]; [15],"3,120 ng/mL"
same,α-fetoprotein (AFP) in culture supernatant,[8]; [16],"14,400 ng/mL"
same,effect on the extracellular signal regulated kinase,[9],little or no effect
same,α-fetoprotein (AFP) in culture supernatant,[10],324 ng/mL
same,AFP yield (culture supernatant),[11]; 6 days after the seeding,"6,430 ng/mL"
same,AFP yield (culture supernatant),[11]; 13 days after the seeding,"30,900 ng/mL"
same,AFP expression level (culture supernatant),[12]; 8 days after the seeding,"5,540 ng/mL"
same,AFP expression level (culture supernatant),[12]; 13 days after the seeding,"2,320 ng/mL"
same,AFP expression level (culture supernatant),"[13]; cell sample No. 634: 0.1 μM A-83-01/ReproStem (bFGF-free), collagen plate without Matrigel, 6 days after the seeding","2,890 ng/mL"
same,AFP expression level (culture supernatant),"[13]; cell sample No. 634: 0.1 μM A-83-01/ReproStem (bFGF-free), collagen plate without Matrigel, 14 days after the seeding","24,900 ng/mL"
same,AFP expression level (culture supernatant),"[13]; cell sample No. 637: 0.1 μM A-83-01/ReproStem (bFGF-free), collagen plate coated with Matrigel, 6 days after the seeding","3,040 ng/mL"
same,AFP expression level (culture supernatant),"[13]; cell sample No. 637: 0.1 μM A-83-01/ReproStem (bFGF-free), collagen plate coated with Matrigel, 14 days after the seeding","30,000 ng/mL"
same,culture of rat iPS cells,[14],allows uniform proliferation and prolonged culture of rat iPS cells without differentiation
